The text below walks through data of patent US6878736B1, “Histamine H3 receptor ligands” (James Black Foundation Limited, priority 1998, dated 2005).

SMILES strings stand for the structures. Counter-ions that a name gives are not always drawn.

The target of experiment [1] is T1, Histamine H3 receptor (Cavia porcellus, UniProt Q9JI35). In words: Histamine H3 radioligand binding assay, guinea pig cortex ([3H]-R-α-methylhistamine). Conditions: guinea pig cortex membranes, competition with 1 nM [3H]-R-α-methylhistamine; for Ki: read-out: pKi (Guinea pig cortex) (converted). In short, it runs like this:
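Male Dunkin Hartley guinea pig cortical membranes incubated 165 min at 21±3 °C in 20 mM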

In experiment [2] the target is T1, Histamine H3 receptor. In words: Histamine H3 functional assay, guinea pig ileum (ileal longitudinal muscle, myenteric plexus). The arrangement: species or system tissue. Conditions: antagonist affinity from rightward shift of R-(α)-methylhistamine E/[A] curves (Schild), typical variance ±0.15 log units; for Kb: read-out: pKb (Guinea pig ileum) (converted). The protocol: • 1. J. Med. Chem 1994, 314. • 2. WO 97/29092 Histamine H3 Functional Assay—Guinea Pig Ileum
The biological activity of the compounds of the examples was measured using the ileal longitudinal muscle, myenteric plexus assay described by Paton and Aboo Zar (J. Physiol. 1968, 194, 13-33). Male Dunkin-Hartley guinea pigs (250-300 g) were employed. Briefly, a 50 cm portion of ileum proximal to the caecum was removed, after discarding the terminal 20 cm. Ileal segments (3 cm) were cleaned by passing Krebs-Henseleit buffer containing 3 μM mepyramine gently through the ileum using a Pasteur pipette (size: 13.8 cm length, 0.65 cm diameter). To avoid unnecessary damage to the tissue, Krebs-Henseleit buffer was passed through the ileal segment, while it was lying horizontally on a petri dish. Therefore, the ileum was not over-distended and the buffer flowed through with ease. Each segment was then passed over a Pasteur pipette and the longitudinal muscle layer and adhering myenteric plexus was teased away using moist cotton wool, by stroking tangentially away from the mesenteric attachment. The tissues were suspended in 20 ml organ baths containing Krebs-Henseleit buffer at 37±1° C. and gassed with […]. The tissues were ligated to two parallel stainless steel wires, situated between two platinum electrodes (0.76 cm length, 0.06 cm diameter). All measurements were recorded isometrically (Grass FTO3 transducer). Following an initial loading tension of 1 g, the tissues were stimulated with electrical pulses at a frequency of 0.1 Hz and a pulse duration of 0.5 msec, as described by Kosterlitz & Watt (Br. J. Pharmacol. 1968, 266276). Initially, the tissues were stimulated at supramaximal (1.3 fold times maximal) voltage for a period of 30 min and then the tissues were washed and re-stimulated. A “sighter dose” of the selective histamine H3-receptor agonist, R-(α)-methylhistamine (0.3 μM) (Arrang et al. Nature, 1987, 117-123), was administered. Upon generation of response, the “sighter dose” was removed from the tissues by “washout” (6 washes over 60 min) and during this period the electrical stimulation was switched off. The tissues were then re-stimulated and allowed to stabilise prior to the addition of drug treatments, which were allocated on a randomised block basis to the organ baths. Following the incubation period, a single cumulative E/[A] curve was obtained. The experimental E/[A] curve data was expressed as the percentage inhibition of the peak height of electrically-stimulated contraction. Antagonist affinity values were calculated from the degree of rightward shift of the R-(α)-methylhistamine E/[A] curves using Schild's methods (Arunlakshana & Schild Br. J. Pharmacol. 1959, 48-58). Typical variance in this assay is ±0.15 log units.

T1 sequence (Q9JI35 whole entry): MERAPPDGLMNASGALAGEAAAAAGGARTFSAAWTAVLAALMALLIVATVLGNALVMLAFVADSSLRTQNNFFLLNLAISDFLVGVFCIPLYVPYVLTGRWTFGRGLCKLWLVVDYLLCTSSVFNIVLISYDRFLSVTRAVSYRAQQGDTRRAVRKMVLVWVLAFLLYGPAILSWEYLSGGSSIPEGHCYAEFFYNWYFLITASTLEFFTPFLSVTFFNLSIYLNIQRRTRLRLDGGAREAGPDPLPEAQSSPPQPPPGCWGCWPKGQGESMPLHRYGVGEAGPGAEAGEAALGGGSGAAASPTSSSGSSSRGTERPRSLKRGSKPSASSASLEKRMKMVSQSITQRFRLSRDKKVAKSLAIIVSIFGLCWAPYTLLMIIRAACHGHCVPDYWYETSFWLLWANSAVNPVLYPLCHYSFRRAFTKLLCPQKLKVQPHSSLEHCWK

For `N=C(NCCCN1CCCC1)NCCC1CCCCC1` [Example 42, N-(2-Cyclohexyl-ethyl)-N′-(3-pyrrolidin-1-yl-propyl)-guanidine bis-hydrochloride], on Histamine H3 receptor [1], the Ki is 0.0251 µM. The Kb on Histamine H3 receptor [2] is 0.398 µM.
In the case of `N=C(NCCCC1CCCCC1)NCCCN1CCCC1` [Example 43, N-(3-Cyclohexyl-propyl)-N′-(3-pyrrolidin-1-yl-propyl)-guanidine bis-hydrochloride], the Ki at Histamine H3 receptor [1] was 0.1 µM. For the same compound, the Kb on Histamine H3 receptor [2] is 0.2 µM.
On to `C[C@@H](NC(=N)NCCCCN1CCCC1)C1CCCCC1` [Example 44, N-(1(R)-Cyclohexyl-ethyl)-N′-(4-pyrrolidin-1-yl-butyl)-guanidine bis-hydrochloride], for which, on Histamine H3 receptor [1], the Ki is 0.00158 µM. Further, on Histamine H3 receptor [2], the Kb was 0.0251 µM.
For `C[C@H](NC(=N)NCCCCN1CCCC1)C1CCCCC1` [Example 45, N-(1(S)-Cyclohexyl-ethyl)-N′(4-pyrrolidin-1-yl-butyl)-guanidine bis-hydrochloride], in that order: 0.00398 µM and 0.0316 µM.
As to `Cl.Cl.N=C(NCCCCCN1CCCC1)NCC1CCCCCC1` [Example 46, N-Cycloheptyl-methyl-N′(5-pyrrolidin-1-yl-pentyl)-guanidine bis-hydrochloride], the “pKi (Guinea pig cortex)” value at Histamine H3 receptor [1] is 8.5. The “pKb (Guinea pig ileum)” value on Histamine H3 receptor [2] was determined as 7.7.
As for `N=C(NCCCCCN1CCCC1)NCc1ccccc1` [Example 47, N-Benzyl-N′-(5-pyrrolidin-1-yl-pentyl)-guanidine bis-hydrochloride], the Ki at Histamine H3 receptor [1] is 0.00398 µM. Besides, at Histamine H3 receptor [2], the Kb was 0.0501 µM.
For `Cc1ccccc1CNC(=N)NCCCCCN1CCCC1` [Example 48, N-(2-Methylbenzyl)-N′-(5-pyrrolidin-1-yl-pentyl)-guanidine bis-hydrochloride], the Ki on Histamine H3 receptor [1] was 0.00316 µM. For the same compound, at Histamine H3 receptor [2], the Kb was 0.0251 µM.
For `C[C@H](NC(=N)NCCCCCN1CCCC1)c1ccccc1` [Example 49, N-(1(S)-Phenyl-ethyl)-N′-(5-pyrrolidin-1-yl-pentyl)-guanidine bis-hydrochloride], the Ki at Histamine H3 receptor [1] was 0.00631 µM. Moreover, the Kb on Histamine H3 receptor [2] was 0.0316 µM.
Take `CN(Cc1ccccc1)C(=N)NCCCCCN1CCCC1` [Example 50, N-Benzyl-N-methyl-N′-(5-pyrrolidin-1-yl-pentyl)-guanidine bis-hydrochloride]: the Ki at Histamine H3 receptor [1] was 0.0158 µM. For the same compound, at Histamine H3 receptor [2], the Kb was 0.316 µM.
Take `N=C(NCCCCCN1CCCC1)N1CCc2ccccc2C1` [Example 51, N-(5-Pyrrolidin-1-yl-pentyl)-3,4-dihydro-1H-isoquinoline-2-carboxamidine bis-hydrochloride]: the Ki on Histamine H3 receptor [1] is 0.00794 µM. Moreover, the Kb at Histamine H3 receptor [2] is 0.1 µM.
As to `N=C(NCc1ccc(Cl)cc1)N(CCCCN1CCCC1)Cc1ccc(Cl)cc1` [Example 52, N,N′-Bis-(4-Chlorobenzyl)-N-(4-pyrrolidin-1-yl-butyl)-guanidine bis-hydrochloride], the Ki on Histamine H3 receptor [1] is 0.316 µM. For the same compound, the Kb at Histamine H3 receptor [2] is 0.316 µM.
As for `N=C(NCCCCCN1CCCC1)NCc1ccc2ccccc2c1` [Example 53, N-(Naphthalen-2-yl-methyl)-N′-(5-pyrrolidin-1-yl-pentyl)guanidine bis-hydrochloride], the Ki on Histamine H3 receptor [1] was 0.00794 µM. Moreover, the Kb on Histamine H3 receptor [2] was 0.0794 µM.
For `Cl.Cl.N=C(NCCCCN1CCCC1)NCc1ccc(-c2ccccc2)cc1` [Example 54, N-Biphenyl-4-yl-methyl-N′-(4-pyrrolidin-1-yl-butyl)-guanidine bis-hydrochloride], the “pKi (Guinea pig cortex)” value on Histamine H3 receptor [1] stood at 7.3. For the same compound, the “pKb (Guinea pig ileum)” value at Histamine H3 receptor [2] worked out at 7.1.
As to `N=C(NCCCCN1CCCC1)NCc1ccc(C2CCCCC2)cc1` [Example 56, N-(4-Cyclohexylbenzyl)-N′-(4-pyrrolidin-1-yl-butyl)-guanidine bis-hydrochloride], on Histamine H3 receptor [1], the Ki is 0.02 µM. The Kb on Histamine H3 receptor [2] was 0.0631 µM.
`N=C(NCCCCCN1CCCC1)NCC1CCCCO1` (stereo not drawn) [Example 58, N-(5-Pyrrolidin-1-yl-pentyl)-N′-(tetrahydro-pyran-2-yl-methyl)-guanidine bis-hydrochloride]: at Histamine H3 receptor [1], the Ki is 0.00316 µM. Besides, the Kb at Histamine H3 receptor [2] is 0.2 µM.
For the compound `Cl.Cl.N=C(NCCOCCN1CCCC1)NCC12CC3CC(CC(C3)C1)C2` [Example 59, N-Adamantan-1-yl-methyl-N′-(2-(2-pyrrolidin-1-yl-ethoxy)-ethyl)-guanidine bis-hydrochloride], the “pKi (Guinea pig cortex)” value on Histamine H3 receptor [1] is 8.0. The “pKb (Guinea pig ileum)” value on Histamine H3 receptor [2] is reported as 7.0.
For the compound `Cl.Cl.N=C(NCCCCCN1CCCCC1)NCC12CC3CC(CC(C3)C1)C2` [Example 60, N-Adamantan-1-yl-methyl-N′-(5-piperidin-1-yl-pentyl)-guanidine bis-hydrochloride], the “pKi (Guinea pig cortex)” value on Histamine H3 receptor [1] is on record as 8.0. The “pKb (Guinea pig ileum)” value at Histamine H3 receptor [2] was found to be 8.1.
Consider `Cl.Cl.N=C(NCCCCCN1CCCCCC1)NCC12CC3CC(CC(C3)C1)C2` [Example 61, N-Adamantan-1-yl-methyl-N′-(5-azepan-1-yl-pentyl)-guanidine bis-hydrochloride], for which the “pKi (Guinea pig cortex)” value at Histamine H3 receptor [1] was determined as 8.1. Besides, the “pKb (Guinea pig ileum)” value at Histamine H3 receptor [2] turned out to be 7.8.
Consider `Cl.Cl.N=C(NCCCCCN1CCCCCCC1)NCC12CC3CC(CC(C3)C1)C2` [Example 62, N-Adamantan-1-yl-methyl-N′-(5-azocan-1-yl-pentyl)-guanidine bis-hydrochloride], for which the “pKi (Guinea pig cortex)” value on Histamine H3 receptor [1] is listed as 7.5. The “pKb (Guinea pig ileum)” value at Histamine H3 receptor [2] is listed as 7.4.
The matching figures for `CN1CCN(CCCCCNC(=N)NCC23CC4CC(CC(C4)C2)C3)CC1.Cl.Cl.Cl` [Example 63, N-Adamantan-1-yl-methyl-N′-(5-(4-methyl-piperazin-1-yl)-pentyl)-guanidine tris-hydrochloride]: 7.7 and 7.4.
Turning to `CNC(=NCCCN1CCCC1)NCc1ccc(Cl)cc1` [Example 64, N-(4-Chlorobenzyl)-N′-methyl-N″-(3-pyrrolidin-1-yl-propyl)-guanidine], the Ki at Histamine H3 receptor [1] is 0.0631 µM. Also, the Kb on Histamine H3 receptor [2] is 0.631 µM.
Regarding `CCCCNC(=N)NCCCCCN1CCCC1` [Example 65, N-Butyl-N′-(5-pyrrolidin-1-yl-pentyl)-guanidine], the Ki on Histamine H3 receptor [1] was 0.00501 µM. Moreover, on Histamine H3 receptor [2], the Kb was 0.0794 µM.
For `CC(C)CCNC(=N)NCCCCCN1CCCC1` [Example 66], in that order: 0.00251 µM and 0.0398 µM.
The matching figures for `CCC(C)CNC(=N)NCCCCCN1CCCC1` (stereo not drawn) [Example 67, N-(2-Methyl-butyl)-N′-(5-pyrrolidin-1-yl-pentyl)-guanidine bis-hydrochloride]: 0.00251 µM and 0.0501 µM.
For `N=C(N)N(CCCCCN1CCCC1)Cc1ccc(Cl)cc1` [Example 69, N-(4-Chlorobenzyl)-N-(5-pyrrolidin-1-yl-pentyl)-guanidine bis-hydrochloride], in that order: 0.001 µM and 0.0126 µM.
With `N=C(N)N(CCCCCCN1CCCC1)Cc1ccc(Cl)cc1` [Example 70, N-(4-Chlorobenzyl)-N-(6-pyrrolidin-1-yl-hexyl)-guanidine bis-hydrochloride], the Ki on Histamine H3 receptor [1] was 0.00501 µM. For the same compound, at Histamine H3 receptor [2], the Kb was 0.00398 µM.
As for `N=C(N)N(CCCCCCN1CCCCC1)Cc1ccc(Cl)cc1` [Example 72, N-(4-Chlorobenzyl)-N-(6-piperidin-1-yl-hexyl)-guanidine bis-hydrochloride], on Histamine H3 receptor [1], the Ki is 0.00501 µM. Also, the Kb on Histamine H3 receptor [2] was 0.00316 µM.
For `N=C(N)N(CCCCCCN1CCCC1)Cc1ccccc1` [Example 73, N-Benzyl-N-(6-pyrrolidin-1-yl-hexyl)-guanidine bis-hydrochloride], in that order: 0.00158 µM and 0.0158 µM.
On to `N=C(N)N(CCCCCCN1CCCC1)Cc1ccc(Br)cc1` [Example 74, N-(4-Bromobenzyl)-N-(6-pyrrolidin-1-yl-hexyl)-guanidine bis-hydrochloride], for which the Ki at Histamine H3 receptor [1] is 0.00794 µM. For the same compound, on Histamine H3 receptor [2], the Kb was 0.0126 µM.
In the case of `C[C@@H](c1ccccc1)N(CCCCCN1CCCC1)C(=N)N` [Example 75, N-(1-(S)-Phenyl-ethyl)-N-(5-pyrrolidin-1-yl-pentyl)-guanidine bis-hydrochloride], the Ki on Histamine H3 receptor [1] was 0.0251 µM. In addition, at Histamine H3 receptor [2], the Kb is 0.126 µM.
